Measured values taken from the supplement of paper PMC10307832.

Columns and labels:
Experiment in all cases: relative viability (nuclei count vs DMSO), 5 days (fraction); higher = more cells survive
[1] = compound: CN(C)C(=N)NC(=N)N [Metformin] + COc1cccc2cc(-c3nc([C@H]4CC[C@H](C(=O)O)CC4)n4ncnc(N)c34)[nH]c12 [OSI-027] (partner 0.5 µM)
How it was run: (§1)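 A single step with final 0.05% Triton X-100, 1% formaldehyde and 1 ug/ml Hoechst fixed the cells and stained nuclei 5 days after treatment. Lung cancer cell lines in 1536-well plates had been treated by pin tool the day after seeding with one drug alone or a fixed anchor-drug dose plus five library-drug doses (not always all listed) in √10 steps, and nuclei were counted on 4× images. Relative viability is the ratio of nuclei in treated wells to nuclei in vehicle wells, taken as the median of duplicate plates.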

[2] = compound: CN(C)C(=N)NC(=N)N [Metformin] + C[C@@H](Oc1cc(-c2cnn(C3CCNCC3)c2)cnc1N)c1c(Cl)ccc(F)c1Cl [Crizotinib] (partner 1 µM)
How it was run: as §1

[3] = compound: CN(C)C(=N)NC(=N)N [Metformin] + Nc1ncn([C@H]2C[C@H](O)[C@@H](CO)O2)c(=O)n1 [Decitabine] (partner 2 µM)
How it was run: as §1

[4] = compound: N#CC1(c2ccc(NC(=O)c3cccnc3NCc3ccncc3)cc2)CCCC1 [Apatinib] + COc1cccc2cc(-c3nc([C@H]4CC[C@H](C(=O)O)CC4)n4ncnc(N)c34)[nH]c12 [OSI-027] (partner 0.5 µM)
How it was run: as §1

Row | Cell Line | relative viability ([1]; first compound 31.62 µM) | relative viability ([1]; first compound 100 µM) | relative viability ([1]; first compound 316.23 µM) | relative viability ([1]; first compound 1000 µM) | relative viability ([2]; first compound 31.62 µM) | relative viability ([2]; first compound 100 µM) | relative viability ([2]; first compound 316.23 µM) | relative viability ([2]; first compound 1000 µM) | relative viability ([3]; first compound 10 µM) | relative viability ([3]; first compound 31.62 µM) | relative viability ([3]; first compound 100 µM) | relative viability ([3]; first compound 316.23 µM) | relative viability ([3]; first compound 1000 µM) | relative viability ([4]; first compound 0.08 µM) | relative viability ([4]; first compound 0.253 µM) | relative viability ([4]; first compound 0.8 µM) | relative viability ([4]; first compound 2.53 µM) | relative viability ([4]; first compound 8 µM) | relative viability ([1]; first compound 10 µM) | relative viability ([2]; first compound 10 µM)
1 | NCI-H1792 | 0.91 | 0.909 | 0.697 | 0.678 | 0.956 | 1.13 | 0.971 | 0.98 | 0.449 | 0.428 | 0.482 | 0.386 | 0.496 | 0.778 | 0.659 | 0.693 | 0.475 | 0.439 |  | 
2 | NCI-H596 | 0.84 | 0.85 | 0.636 | 0.988 | 1.17 | 1.09 | 1.11 | 1.17 | 1.17 | 1.12 | 1.06 | 1.01 | 1.11 | 0.795 | 0.656 | 0.653 | 0.486 | 0.545 | 1.04 | 1.05
3 | NCI-H1650 | 0.889 | 0.837 | 0.771 | 0.38 | 0.855 | 1.04 | 0.877 | 0.82 | 0.326 | 0.343 | 0.317 | 0.402 | 0.389 |  | 0.776 | 0.456 | 0.463 | 0.541 | 0.887 | 0.961
4 | NCI-H1944 | 0.401 | 0.402 | 0.425 | 0.455 | 1.29 | 1.26 | 1.11 | 1.12 | 0.361 | 0.381 | 0.437 | 0.401 | 0.453 | 0.419 | 0.387 | 0.361 | 0.378 | 0.405 | 0.428 | 1.06
